Measurements taken from publication PMC9606171, “Synthetic PPAR Agonist DTMB Alleviates Alzheimer’s Disease Pathology by Inhibition of Chronic Microglial Inflammation in 5xFAD Mice” (Neurotherapeutics, 2022).

Columns and labels:
[1] = tested on: primary microglia; test: Western blot of NF-κB, NLRP3 and ASC in primary microglia; assay type: cell-based, mice; settings: DTMB 25 µM, 24 h
Method: Primary microglia culture was conducted as described in a previous study. Mice at postnatal day 3 mice were used for the preparation of primary microglia. Newborn mice pups were anesthetized in ice and then sacrificed. Isolated cortex and hippocampus were collected after removing the meninges. Brain tissues were dissociated by incubating in HBSS (Gibco, Gaithersburg, MD, USA) with trypsin (2.5%) for 15 min. Cell homogenates were then incubated in M-CSF (20 ng/mL, R&D Systems) supplemented with DMEM-F12 medium with 10% fetal bovine serum, 10% horse serum, 1% GlutaMAX (Gibco, MD, USA), and 1% penicillin/streptomycin (Welgene, Korea). After 10 days, microglia were purified through shaking at 260 rpm for 2 h.
Cells were lysed with lysis buffer containing 50 mM Tris (pH 7.4), 140 mM NaCl, 5 mM EDTA, and a protease inhibitor tablet, followed by sonication. Lysate protein concentrations were determined using Bradford reagents (AMERSCO, MA, USA). Proteins were resolved by sodium dodecyl sulfate (SDS) polyacrylamide gel electrophoresis, transferred to nitrocellulose membranes (Pall Corporation, New York, NY, USA), and incubated with blocking buffer (5% nonfat dry milk in TBS and 0.1% Tween 20) for 30 min. Western blot analyses were performed using primary antibodies against NF-κB, NLRP3, ASC, nicastrin, pen2 (Cell Signaling Technology, Danvers, MA, USA), Aph1 (Invitrogen), amyloid C-terminal fragment (Santa Cruz Biotechnology, Dallas, TX, USA), and GAPDH (Bethyl Laboratories, Mongomery, TX, USA). Secondary antibodies of rabbit (Promega), rat, and goat (Bethyl Laboratories) were used, and detection was performed with SUPEX ECL reagent (Neuronex, Korea) and an ImageQuant LAS-4000 (GE Healthcare, MA, USA), according to the manufacturer’s instructions. The integrated blot density was quantified through ImageJ.

[2] = biological target: T1, PPARδ (Homo sapiens, UniProt Q03181); test: Gal4-transactivation luciferase assay in HEK293A cells, PPARδ LBD; assay type: cell-based
T1 construct: pcDNA5-GAL4-PPAR LBD, pG5-luc, and Rluc vector (as control) were transfected into HEK293A cells; expressed in transfected cells; host or cells: HEK293A
T1 sequence (Q03181 211-439 limits assumed): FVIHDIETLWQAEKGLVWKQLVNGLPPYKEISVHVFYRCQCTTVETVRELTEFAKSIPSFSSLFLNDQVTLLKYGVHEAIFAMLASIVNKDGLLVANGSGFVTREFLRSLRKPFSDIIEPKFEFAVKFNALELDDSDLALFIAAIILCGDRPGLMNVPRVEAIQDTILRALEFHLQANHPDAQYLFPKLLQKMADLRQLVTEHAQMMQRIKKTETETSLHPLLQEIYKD
Method: HEK293A cells were transfected with the GAL4-reporter plasmids and pGL4.74 (Promega, Madison, WI, USA) as an internal standard through electroporation using a Neon Transfection System (Invitrogen, Carlsbad, CA, USA). All vector materials were provided by Professor Yuichiro Kanno at Toho University. Cells were treated with DTMB and each positive control compound for 24 h after overnight incubation. Cells were then harvested and resuspended in luciferase lysis buffer (Promega), followed by incubation on ice for 10 min. Cell debris was removed by centrifugation at 20,000 × g at 4 °C for 10 min, and the supernatants were used for luciferase assay. Using a dual-luciferase reporter assay system (Promega), luciferase activities were measured according to the manufacturer’s instructions. Experimental firefly luciferase activities were normalized against those of Renilla luciferase.

[3] = tested on: RAW 264.7 macrophage cells; test: Griess assay, LPS-induced NO production; assay type: cell-based; settings: LPS (1 µg/mL), 24 h
Method: Griess assay (Promega) was performed under manufacturer’s instruction to measure the concentration of nitrite after inducing the inflammatory response in RAW 264.7 macrophage cells by LPS treatment. The well-known PPAR selective agonists, such as WY14643 (PPARα), GW501516 (PPAR-β/δ), and rosiglitazone (PPARγ), were used as positive controls.

[4] = tested on: 5xFAD mice; test: RT-qPCR of magnetically sorted adult microglia; assay type: in vivo; settings: adult microglia sorted from 5xFAD mice
Method: (§1) DTMB was synthesized from Daejung Chemicals (Korea) and was dissolved in dimethyl sulfoxide (Sigma Aldrich, St. Louis, MO, USA) for cell-based experiments. To evaluate the effects of DTMB on 5xFAD mice, DTMB (10 mg/kg) and vehicle (1% carboxymethylcellulose and 10% DMSO) were orally administrated to four groups (wild-type, wild-type + DTMB, 5xFAD, and 5xFAD + DTMB) with a 6 day per week for 3 months.
To isolate the adult microglia from DTMB- or vehicle-treated 5xFAD mice brain, magnetic-activated cell sorting (MACs) system was used. Whole brain tissue was dissociated to a single cell level using gentleMACs dissociation kit (Miltenyi Biotech, Bergisch Gladbach, Germany) according to manufacturer’s instruction. To separate the immune cell fraction, 47% percoll gradient was applied to single cell mixture and centrifuged at 2,000 rpm for 10 min. Adult microglia was isolated by LS column after incubating with anti-CD11b MicroBeads (Miltenyi Biotech). Separated adult microglia were used to analyze the expression of genes related to microglia activation and inflammation by performing RT-PCR. Sample sizes were 3 mice per group.

[5] = Body and tissue weight after 3 months of treatment; assay type: in vivo; settings: 3 months treatment; vehicle- vs DTMB-treated mice
Method: as §1

[6] = tested on: HMO6 cell line; test: Cell viability assay (MTT), HMO6; assay type: cell-based; settings: 48 h
Method: Cell viability was measured by chromogenic assay involving the biological reduction of 3-(4,5-dimethyl-thiazol-2-yl)-2,5-diphenyltetrazoliumbromide (MTT) to formazan in living cells. Briefly, cells were seeded in 96-well plates in a final volume of 100 μL. After 24 h, the culture media were replaced with fresh media containing DTMB compounds, and the cells were cultured for another 48 h. Next, MTT (5 mg/mL in PBS) was added to the culture medium. The cells were incubated for 1 h in the dark at 37 °C, and the supernatant was then removed from the well. Total MTT solvent (4 mM HCl and 0.1% Nonidet P-40, both in isopropanol) was added to dissolve the formazan crystal, and absorbance was measured at 570 nm using a microplate reader Infinite 200 Pro NanoQuant microplate reader (TECAN, Switzerland).

[7] = tested on: 5xFAD mice; test: Western blot and qPCR of APP and β-/γ-secretase in 5xFAD brain; assay type: in vivo; settings: 10 mg/kg orally, 3 months
Method: as §1
Cells were lysed with lysis buffer containing 50 mM Tris (pH 7.4), 140 mM NaCl, 5 mM EDTA, and a protease inhibitor tablet, followed by sonication. Lysate protein concentrations were determined using Bradford reagents (AMERSCO, MA, USA). Proteins were resolved by sodium dodecyl sulfate (SDS) polyacrylamide gel electrophoresis, transferred to nitrocellulose membranes (Pall Corporation, New York, NY, USA), and incubated with blocking buffer (5% nonfat dry milk in TBS and 0.1% Tween 20) for 30 min. […] The integrated blot density was quantified through ImageJ.
Total RNA was isolated using TRI Reagent (Molecular Research Center, Cincinnati, OH, USA). […] For detection and quantification, a StepOnePlus Real-Time PCR System (Applied Biosystems, Foster City, CA, USA) was used with FastStart Universal SYBR Green Master (Roche, Basel, Switzerland). Real-time qPCR data were analyzed using the comparative CT method. […]

COc1ccc(-c2cc(=O)oc3c(C)c(OC(=O)[C@H](Cc4c[nH]c5ccccc45)NC(=O)OC(C)(C)C)ccc23)cc1 [DTMB]
protein level of ASC [1]: not changed | protein level of NF-κB [1]: decreased | protein level of NLRP3 [1]: decreased | relative luciferase activity ([2]; HEK293A, 24 h, various concentrations): increased luciferase activity | transactivation activity (luciferase) compared to positive control ([2]; versus positive control): lower than the positive controls | NO production (nitrite) [3]: reduced NO production in a concentration-dependent manner | inhibition of NO production compared between DTMB and known PPAR agonists [3]: inhibited NO production greater than treatment with the known agonists of PPARα and PPARγ | levels of microglial activation markers (Iba-1, Trem2, and Cd68) [4]: markedly decreased | levels of proinflammatory cytokines (Tnf-α, Il-6, and Il-1β) [4]: markedly decreased | body or tissue weight [5]: no changes | cytotoxicity (MTT) [6]: no cytotoxicity | protein level of β-secretase ([7]; cortex): slightly decreased | APP protein and mRNA level ([7]; hippocampus): neither changes
